Here are results for 11 compounds from patent EP0705258B1, “AZOLYL-CYCLIC AMINE DERIVATIVES WITH IMMUNOMODULATORY ACTIVITY” (Knoll AG, priority 1993, dated 1995).

Each structure is given as a SMILES string. Where a name gives a salt, the structure may show the parent alone.

In assay [1] the test system is tumour necrosis factor-α (TNF-α). The experiment in a line: Mouse Tumour Necrosis Factor Test (Test B), mouse endotoxin shock model, serum TNF-α by ELISA. The assay is classed as in vivo, BALB/c mice. The conditions noted are these: Mus musculus; minimum effective oral dose giving significant reduction in serum TNF-α of ≥35%; dosed 2 h before LPS i.p.; ≤ = active at dose given but not tested at lower doses; read-out: MTNF:MED. An excerpt: Preferred compounds of the present invention are active in an in-vivo test which determines the ability of the compounds to inhibit the release of tumour necrosis factor-α (TNF-α) in a mouse endotoxin shock model (Test B). This model is similar to that described by Zuckerman and Bendele (1989), Infection and Immunity 57 (10): p3009-3013.
Each compound of formula I was combined with a carrier of a solution of 1.5% v/v sorbitan esters under the trade name Tween 80 and 0.25% v/v cellosize in sterile water (100 µl) and was administered orally to a group of four BALB/c mice. The concentration of compound was such as to provide dosages selected from 100, 30, 10, 3, 1, 0.1 and 0.03 mg/kg. Two hours after such oral administration, lipopolysaccharide (LPS) (E. coli 0127:B8) (100 µg) in sterile water (0.2 ml) was administered intraperitoneally to the test mice.
A control group of eight BALB/c mice was treated in a similar manner as the test group except that no test compound was included with the carrier.
One hour after LPS administration the mice were killed and blood was collected by cardiac puncture. The blood was incubated at 20°C for 2 hours and the serum was separated from the clotted blood following centrifugation. Serum tumour necrosis factor-α (TNF-α) levels were assayed by an enzyme-linked immunosorbent assay (ELISA) and the concentration of TNF-α in each of the drug-treated groups was compared with the control group by one-way analysis of variance followed by a multiple t-test.
The ELISA was carried out by coating a 96-well vinyl assay plate (Costar) overnight at 4°C with 50 µl per well of 2 µg/ml hamster anti-mouse TNF monoclonal antibody in 0.1M sodium hydrogen carbonate buffer at pH 8.2. After washing the plate with phosphate buffered saline (PBS) containing 0.05% v/v sorbitan esters under the trade name Tween 20 (wash buffer), a blocking/dilution buffer (10% sheep serum in PBS containing 0.1% v/v sorbitan esters under the trade name Tween 20 (200 µl)) was aliquoted to each well and incubated at 37°C for 0.5 hours. After aspirating the blocking buffer, the serum samples and pure TNF (as a standard) diluted in blocking/dilution buffer, were added to the wells and incubated at 37°C for 2 hours. After washing with the wash buffer, a polyclonal rabbit anti-mouse TNF-α antibody in blocking/dilution buffer (100 µl of a 1 in 10,000 dilution) was added and incubated for a further 1.5 hours at 37°C. After further washes, anti-rabbit IgG peroxidase conjugate (100 µl of a 1 in 4000 dilution) was added and incubated at 37°C for 0.5 hours. After further washing, the substrate solution (100 µl per well of 0.1 mg/ml 3,3', 5,5'-tetramethylbenzidine dihydrochloride in 0.1M phosphate citrate buffer, pH 5.0, to which 2 µl of 30% hydrogen peroxide per 10 ml was added just before use) was added and the colour allowed to develop. The reaction was stopped by the addition of 1M sulphuric acid (25 µl) and the optical density read in a multichannel spectrophotometer at 450 nm. The mean TNF-α concentration was determined by comparison with the standard curve and the mean TNF-α concentration for each group compared with that produced by the control group. Drug treatments which cause a statistically significant reduction in TNF-α concentration of ≥35% at a single dose at 100 mg/kg or less were considered active.

Assay [2] has as its system Zymosan Stimulated Macrophages. Put plainly: Inhibition of Arachidonic Acid Release from Zymosan Stimulated Macrophages (Test D). The assay is classed as cell-based, MF1 mice. The conditions noted are these: Mus musculus, Macrophage, tested at 100, 50, 20, 10, 5 and 1 µM. As to the method: Female MF1 mice (weighing 20 to 25 g) were killed using a rising concentration of CO2. The mice were laid on their backs and the abdomens wiped with 70% alcohol. The skin was pulled back, exposing the peritoneal wall. Medium A (5 ml) (see below) was injected into the peritoneal cavity of each mouse followed by approximately 1 ml of air using a 20 ml syringe and a 21G x 40 mm needle in order to form a suspension of macrophage cells. The medium and cells were then removed using a 19G x 40 mm needle. The resulting suspension was returned to a sterile beaker kept on ice. The extracts from all the mice were pooled and this pooled cell suspension was counted using a Coulter counter and adjusted to a final cell count of 1 - 1.3 x 10^6 cells/ml prior to labelling with [^3H]-arachidonic acid. Typically five mice provided sufficient cells for each multiwell plate. Sufficient [^3H]arachidonic acid in ethanol to give a final concentration of 1.6 µCi/ml (equivalent to 40 µCi/plate) was blown to dryness under nitrogen. The arachidonic acid was then resuspended in 1 or 2 ml of the cell suspension which was then mixed with the remainder of the cell suspension in a centrifuge bottle. The labelled cell suspension was then plated out into sterile plastic 96 flat-bottomed well plates (250 µl per well) and incubated overnight at 37°C in a moist atmosphere of 5% CO2, 95% air. The following day, non-adherent cells were removed by washing 3 times with sterile phosphate buffered saline (PBS). The adherent peritoneal macrophages were then cultured for a further 24 hours in the presence or absence of drugs, in medium B (see below) at 37° in a 5% CO2 atmosphere in order to measure the effects of drugs on the spontaneous release of arachidonic acid in the absence of stimulus. After this incubation, supernatants were removed to give media 1 and stored in sealed multi-well plates at 4°C prior to scintillation counting. Drugs which potentiated spontaneous release of arachidonic acid (125% of controls) were deemed to be toxic at the concentration at which this phenomenon occurred. The supernatants were replaced by fresh medium C containing fresh drug and a stimulus. Three drugs were tested at six concentrations (100, 50, 20, 10, 5 and 1 µM) in replicates of four on each plate. The other wells contained controls consisting of a positive control (e.g. dexamethasone), medium (B) only and medium C only. Incubation was then continued for a further 5 hours, whereupon the supernatants were collected to give media 2 and the adherent cells washed with PBS. The cells were then lysed with 100 µl of 0.1% TRITON® X100 in a 0.1% solution of bovine serum albumin in 0.9% saline and mechanically disrupted to give cell lysates. These supernatants (media 2) and cell lysates (Cells) were also stored in sealed multi-well plates at 4°C prior to scintillation counting. 200 µl aliquots of media, or 100 µl aliquots of cells were counted using 2 ml of OPTIPHASE "HIGH SAFE" (Trademark of LKB) as scintillant. […] The value for the arachidonic acid release in the absence of stimulus (spontaneous, cpm of media 2) from cells which had been exposed to neither stimulus nor drug was subtracted from all equivalent values (cpm media 2, stimulated with or without drug) to give the net stimulated release. The percentage inhibition of arachidonic acid release caused by a drug may then be calculated using the following equation. % Inhibition = 100 -(net stimulated release in presence of drug x 100)/(net stimulated release in absence of drug) [formula] […] The zymosan stimulant was prepared as follows:- zymosan (200mg) (supplied by Sigma) was added to PBS (20ml). The mixture was boiled for 30 minutes and the volume restored to 20ml with water. The zymosan was harvested by centrifugation at 500Xg for 5 minutes, washed twice by resuspension in PBS (10ml) and centrifugation. After the final separation, the zymosan was resuspended in 20ml PBS and stored as lml aliquots at -20°C. […]

For assay [3], the system named is lymphocyte proliferation (BALB/c responder and mitomycin C treated C57BL/6 stimulator spleen cells). The experiment in a line: Mixed Lymphocyte Reaction (Test A), one-way MLR, tritiated thymidine incorporation. The assay is classed as cell-based, mice. The settings on record: Mus musculus; concentration causing 50% inhibition of lymphocyte proliferation, by linear interpolation; ≤ = active at this concentration but not tested at lower doses. The procedure:
A mixed lymphocyte reaction (MLR) occurs when lymphocytes from two genetically dissimilar individuals, or inbred strains of mice are cultured together. An MLR results in the activation and proliferation of lymphocytes, which is measured by the incorporation of radiolabelled thymidine into the cellular DNA synthesised during cell division. A 'one-way' MLR is used to determine the immunosuppressive activity of test compounds in vitro. In this reaction one population of spleen cells serves as the stimulator cells and is treated with mitomycin C to prevent cell division. Spleen cells from a second allogeneic population (responder cells) are untreated and when mixed with the stimulator cells are able to undergo division which is measured. The degree of proliferation is measured in the presence and absence of test compound to assess the immunosuppressive activity of the compound.
The techniques for carrying out lymphocyte proliferation assays including MLRs are well known, eg Bradley, pages 156-166, in Mishell and Shiigi, Eds. Selected Methods in Cellular Immunology (Freeman, San Francisco, 1980); and Battisto et al, methods in Enzymology 1987; 150: 83-91. Various slight modifications of these techniques are in use and that used herein is described in Gibb, Webber and Bowen, J Immunological Methods 1985; 81: 107-113.
Cell suspensions obtained from the spleens of female BALB/c and C57BL/6 strain mice of between 6 and 9 weeks of age were used as sources of responder and stimulator cells respectively. The mice were killed using a rising concentration of CO2 and the spleens removed aseptically and teased using a scalpel and forceps to produce a single cell suspension in Hanks balanced salt solution (HBSS). The suspensions were filtered through cell strainers (Falcon), sedimented by centrifugation and resuspended in Tris-buffered ammonium chloride pH 7.2 (medium D) to lyse the erythrocytes. The cells were sedimented again and washed twice in HBSS before resuspending in complete RPMI 1640 tissue culture medium (medium E). The C57BL/6 cells were resuspended to 9 mls per spleen and a solution of mitomycin C at 400 µg/ml in medium E added to give a final concentration of 40 µg/ml. After incubation of the C57BL/6 cells at 37°C for 30 minutes in an atmosphere of 5% CO2 and 95% air, the cells were sedimented and washed 3 times in medium E. Both cell suspensions were diluted in medium E to 5 x 10^6 cells/ml. 100µl of each of the responder and stimulator cell suspensions were aliquoted into the wells of 96 well flat bottom microtitre plates containing 50 µl of test compound at an appropriate dilution (initially 50 µM diluted in medium E from a stock solution at 100 mM in dimethyl sulphoxide) giving a final test compound concentration of 10 µM (final dilution). Compounds active at this concentration were tested at further final dilution of 1 µM, 0.1 µM and 0.01 µM and 0.001 µM to determine the concentration of test compound which causes 50% inhibition of the immune response (IC50). After four days of culture at 37°C in a humidified atmosphere of 5% CO2 and 95% air, 1 µCi of tritiated thymidine in 20 µl of medium E was added to each well and the plates incubated for a further 24 hours. Cells were then harvested onto Inotech G7 glass fibre filter mats using an Inotech cell harvester. The filters were transferred to vials to which 2 ml of Packard Emulsifier-Safe scintillation fluid was added and the radioactivity from the incorporated thymidine was counted in a Packard liquid scintillation counter. The counts per minute (CPM) reflect the degree of lymphocyte proliferation. The data were analysed to determine the percentage inhibition of lymphocyte proliferation by the test compound. […]

As for `c1ccc(CCCN2CCCCC2CCn2ccnc2)cc1` (stereo not shown) [Example 100, 2-[2-(Imidazol-1-yl)ethyl]-1-(3-phenylpropyl)piperidine], the minimal effective dose in assay [1] stood at 100 mg/kg. In addition, the IC50 in assay [2] was 27 µM.

Turning to `CC(C)c1nccn1CCC1CCN(CCCc2ccccc2)CC1` [Example 106, 4-[2-(2-Isopropylimidazol-1-yl)ethyl]-1-(3-phenylpropyl)piperidine], the values for the IC50 in assay [3] and in assay [2] were 0.5 µM and 22 µM, respectively.

On to `c1ccc(CCCC2CCN(CCn3ccnc3)CC2)cc1` [Example 96, 1-[2-(imidazol-1-yl)ethyl]-4-(3-phenylpropyl)piperidine, dihydrochloride monohydrate], for which the results for the IC50 in assay [3] and in assay [2] were 0.01 µM and 34 µM, respectively.

Take `c1ccc(SCCN2CCC(CCn3ccnc3)CC2)cc1` [Example 86, 4-[2-(imidazol-1-yl)ethyl]-1-(2-phenylthioethyl)piperidine]: the IC50 in assay [3] worked out at 2.6 µM. In assay [1], the minimal effective dose is not above 10 mg/kg.

Compound `Cc1nccn1CCC1CCN(C(=O)CCc2ccc(Cl)cc2)CC1` [Example 57, 1-[3-(4-Chlorophenyl)propionyl]-4-[2-(2-methylimidazol-1-yl)ethyl]piperidine] yielded a half-inhibitory concentration (IC50) in assay [3] not above 1 µM. Further, the minimal effective dose in assay [1] was determined as 100 mg/kg.

`c1ccc(CCCN2CCC(CCn3nccn3)CC2)cc1` [Example 120, 1-(3-Phenylpropyl)-4-[2-(2H-1,2,3-triazol-2-yl)ethyl]piperidine]: the figures for the 50% inhibitory concentration (IC50) in assay [3] and in assay [2] were 4.2 µM and 100 µM, respectively.

In the case of `CCCc1nccn1CCC1CCN(CCCc2ccccc2)CC1` [Example 110, 1-(3-Phenylpropyl)-4-[2-(2-propylimidazol-1-yl)ethyl]piperidine], the IC50 in assay [3] came to 0.2 µM; in assay [2], 20 µM.

`c1ccc2c(c1)CCC(CN1CCC(CCn3ccnc3)CC1)C2` (stereo not shown) [Example 125, 4-[2-(Imidazol-1-yl)ethyl]-1-(1,2,3,4-tetrahydronaphth-2-ylmethyl)piperidine]: the concentration for half-maximal inhibition (IC50) in assay [3] came out at 2.2 µM. Further, in assay [1], the minimal effective dose was 30 mg/kg.

For the compound `c1ccc(CCCN2CCC(CCn3cncn3)CC2)cc1` [Example 111, 1-(3-Phenylpropyl)-4-[2-(1H-1,2,4-triazol-1-yl)ethyl]piperidine], the midpoint of inhibition in assay [3], the IC50, lay at 7.3 µM. In assay [1], the minimal effective dose is not above 10 mg/kg.

`c1ccc(CCCN2CCC(CCCn3ccnc3)CC2)cc1` [Example 104, 4-[3-(Imidazol-1-yl)propyl]-1-(3-phenylpropyl)piperidine] yielded a concentration for half-maximal inhibition (IC50) in assay [3] not above 1 µM. Besides, the minimal effective dose in assay [1] is not above 100 mg/kg.

Turning to `CCc1nccn1CCC1CCN(CCCc2ccccc2)CC1` [Example 107, 4-[2-(2-Ethylimidazol-1-yl)ethyl]-1-(3-phenylpropyl)piperidine], the figures for the 50% inhibitory concentration (IC50) in assay [3] and in assay [2] were not above 0.01 µM and 22 µM, respectively.
